Experimental data reported in patent publication US20250215039A1, “NUCLEOSIDES FOR TREATING CANCER” (PRIMEFOUR THERAPEUTICS, INC., priority 2022, published 2025).
Where two headings read alike, the source gives them in different places.

Tested on: cancer cell lines
Test: Cancer cell proliferation activity (CellTiterGlo, 72 h)
Assay type: cell-based
Details: 72 h, 72 h, read-out: IC50
Summary of the method: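 Readout is CellTiterGlo luminescence after 72 h compound exposure (0.1% DMSO final), started one day post-seeding, at 37 °C.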

Compound: Cc1cn([C@H]2C[C@H](O)[C@@](C#N)(CO)O2)c(=O)[nH]c1=O [Cpd. No. 123, (2R,3S,5R)-3-hydroxy-2-(hydroxymethyl)-5-(5-methyl-2,4-dioxo-3,4-dihydropyrimidin-1(2H)-yl)tetrahydrofuran-2-carbonitrile]
- IC50 (5637 cell line (bladder)): > 50 µM
- IC50 (AS49 cell line (lung)): > 50 µM
- IC50 (CLS439 cell line (bladder)): > 50 µM
- IC50 (HS729 cell line (muscle)): > 50 µM
- IC50 (JAR cell line (placenta)): > 50 µM
- IC50 (Homo sapiens, 786-0, 72 h, 786O cell line (kidney)): > 50 µM
- IC50 (Homo sapiens, A2780, 72 h, A2780 cell line (ovary)): > 50 µM
- IC50 (Homo sapiens, A-375, 72 h, A375 cell line (skin)): > 50 µM
- IC50 (Homo sapiens, A-431, 72 h, A431 cell line (skin)): 2.6 µM
- IC50 (Homo sapiens, ASPC1, 72 h, ASPC1 cell line (pancreas)): > 50 µM
- IC50 (Homo sapiens, BT-20, 72 h, BT20 cell line (breast)): > 50 µM
- IC50 (Homo sapiens, CAKI-1, 72 h, CAKI1 cell line (kidney)): > 50 µM
- IC50 (Homo sapiens, COLO 205, 72 h, COLO205 cell line (colon)): > 50 µM
- IC50 (Homo sapiens, COLO-678, 72 h, COLO678 cell line (colon)): > 50 µM
- IC50 (Homo sapiens, Ca-Ski, CASKI cell line (cervical)): > 50 µM
- IC50 (Homo sapiens, Caco-2, 72 h, CACO2 cell line (colon)): > 50 µM
- IC50 (Homo sapiens, Calu-6, 72 h, CALU6 cell line (lung)): > 50 µM
- IC50 (Homo sapiens, EFO-21, 72 h, EFO21 cell line (ovary)): > 50 µM
- IC50 (Homo sapiens, EJ-28, 72 h, EJ28 cell line (bladder)): > 50 µM
- IC50 (Homo sapiens, HCT-15, 72 h, HCT15 cell line (colon)): > 50 µM
- IC50 (Homo sapiens, HCT-116, 72 h, HCT116 cell line (colon)): > 50 µM
- IC50 (Homo sapiens, HEK293, 72 h, HEK293 cell line (kidney)): > 50 µM
- IC50 (Homo sapiens, HL-60, 72 h, HL-60 cell line (hematological)): > 50 µM
- IC50 (Homo sapiens, HT-29, 72 h, HT29 cell line (colon)): > 50 µM
- IC50 (Homo sapiens, HT-1080, 72 h, HT1080 cell line (connective tissue)): > 50 µM
- IC50 (Homo sapiens, HeLa, HELA cell line (cervical)): > 50 µM
- IC50 (Homo sapiens, Hs-578T, HS578T cell line, breast): > 50 µM
- IC50 (Homo sapiens, IGROV-1, 72 h, IGROV1 cell line (ovary)): > 50 µM
- IC50 (Homo sapiens, IMR-90, 72 h, IMR90 cell line, lung): > 50 µM
- IC50 (Homo sapiens, J82, 72 h, J82 cell line (bladder)): 4.88 µM
- IC50 (Homo sapiens, JEG-3, 72 h, JEG3 cell line (placenta)): > 50 µM
- IC50 (Homo sapiens, JIMT-1, 72 h, JIMT1 cell line (breast)): > 50 µM
- IC50 (Homo sapiens, K562, 72 h, K-562 cell line (hematological)): > 50 µM
- IC50 (Homo sapiens, Kasumi 1, 72 h, KASUMI-1 cell line (hematological)): > 50 µM
- IC50 (Homo sapiens, L-363, 72 h, L-363 cell line (hematological)): > 50 µM
- IC50 (Homo sapiens, MCF7, 72 h, MCF7 cell line (breast)): > 50 µM
- IC50 (Homo sapiens, MDA-MB-231, 72 h, MDAMB231 cell line (breast)): > 50 µM
- IC50 (Homo sapiens, MDA-MB-435, 72 h, MDAMB435 cell line (skin)): > 50 µM
- IC50 (Homo sapiens, MDA-MB-468, 72 h, MDAMB468 cell line (breast)): > 50 µM
- IC50 (Homo sapiens, MG-63, 72 h, MG63 cell line (bone)): > 50 µM
- IC50 (Homo sapiens, MIA PaCa-2, 72 h, MIAPACA2 cell line (pancreas)): > 50 µM
- IC50 (Homo sapiens, MV4-11, 72 h, MV4-11 cell line (hematological)): 0.38 µM
- IC50 (Homo sapiens, NCI-H292, 72 h, NCIH292 cell line (lung)): > 50 µM
- IC50 (Homo sapiens, NCI-H460, 72 h, NCIH460 cell line (lung)): 2.8 µM
- IC50 (Homo sapiens, OVCAR-3, 72 h, OVCAR3 cell line (ovary)): > 50 µM
- IC50 (Homo sapiens, OVCAR-4, 72 h, OVCAR4 cell line (ovary)): > 50 µM
- IC50 (Homo sapiens, PANC-1, 72 h, PANC1 cell line (pancreas)): > 50 µM
- IC50 (Homo sapiens, PC-3, 72 h, PC3 cell line (prostate)): > 50 µM
- IC50 (Homo sapiens, Panc1005, 72 h, PANC1005 cell line (pancreas)): > 50 µM
- IC50 (Homo sapiens, RD, RD cell line (muscle)): > 50 µM
- IC50 (Homo sapiens, Ramos, RAMOS cell line (hematological)): > 50 µM
- IC50 (Homo sapiens, SAOS-2, 72 h, SAOS2 cell line (bone)): > 50 µM
- IC50 (Homo sapiens, SF-295, 72 h, SF295 cell line (brain)): > 50 µM
- IC50 (Homo sapiens, SK-MEL-5, 72 h, SKMEL5 cell line, skin): > 50 µM
- IC50 (Homo sapiens, SK-MEL-28, 72 h, SKMEL28 cell line (skin)): > 50 µM
- IC50 (Homo sapiens, SK-N-AS, SKNAS cell line (brain)): > 50 µM
- IC50 (Homo sapiens, SK-N-SH, SKNSH cell line (brain)): > 50 µM
- IC50 (Homo sapiens, SK-OV-3, 72 h, SKOV3 cell line (ovary)): > 50 µM
- IC50 (Homo sapiens, SU-DHL10, 72 h, SU-DHL-10 cell line (hematological)): > 50 µM
- IC50 (Homo sapiens, SW-620, 72 h, SW620 cell line (colon)): > 50 µM
- IC50 (Homo sapiens, T-24, 72 h, T24 cell line (bladder)): 3.01 µM
- IC50 (Homo sapiens, TE-671, 72 h, TE671 cell line (muscle)): > 50 µM
- IC50 (Homo sapiens, U2OS, U2OS cell line (bone)): > 50 µM
- IC50 (Homo sapiens, UMUC3, 72 h, UMUC3 cell line (bladder)): > 50 µM
- IC50 (Homo sapiens, UO-31, 72 h, UO31 cell line (kidney)): > 50 µM
- IC50 (MT-3, 72 h, MT3 cell line (breast)): 3.77 µM
- IC50 (NCI-H358M, NCIH358M cell line (lung)): > 50 µM
- IC50 (PBMC, PBMC (hematological)): > 50 µM
